Assay results from the supplement of paper PMC11451515.

Tests used:
Settings in all cases: 48 h
NOMO1 [1] = assay: cell viability relative to DMSO control; higher = less cytotoxic
Method in brief: (§1)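 NOMO1 or SEM cells were plated at 500 cells/well and P12-Ichikawa cells at 1000 cells/well in 1536-well plates (5 μl), after each leukemia line had been adapted for at least four passages in each medium. Pin dosing delivered library compounds in DMSO at 11 threefold concentrations, 47 μM to 0.79 nM. CellTiter-Glo One luminescence was read after 48 h at 37°C. Viability is reported as a per-plate percentage of DMSO wells, with cell-free wells as background.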

P12-Ichikawa [2] = assay: as above
Method in brief: as §1

SEM cells [3] = assay: as above
Method in brief: as §1

NOMO1 [4] = assay: AUC of viability dose-response curve (% viability x log10 dose units); higher = less sensitive
Method in brief: (§2)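 Leukemia cells adapted to each medium (500 or 1000 cells/well, 1536-well plates) were exposed to library compounds in DMSO for 48 h at 37°C at 11 threefold doses, 47 μM to 0.79 nM. Luminescence by CellTiter-Glo One was normalised per plate to DMSO and cell-free wells, then fitted with a four-parameter log-logistic curve on log10 dose. Curves above full viability were scaled and quality-control failures removed before area under the curve was integrated by trapezoidal rule.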

P12-Ichikawa [5] = assay: as above
Method in brief: as §2

SEM cells [6] = assay: as above
Method in brief: as §2

O=NN(CCCl)C(=O)NC1CCCCC1
cell viability [%]
Settings	NOMO1 [1]	P12-Ichikawa [2]	SEM cells [3]
HPLM + 10% dialyzed FBS, 0.000781 µM	91.4	102	84.7
HPLM + 10% dialyzed FBS, 0.00234 µM	114	106	94.3
HPLM + 10% dialyzed FBS, 0.00702 µM	110	107	94.3
HPLM + 10% dialyzed FBS, 0.0211 µM	94.8	96.4	89.2
HPLM + 10% dialyzed FBS, 0.0632 µM	105	107	91.5
HPLM + 10% dialyzed FBS, 0.19 µM	107	107	101
HPLM + 10% dialyzed FBS, 0.569 µM	113	112	111
HPLM + 10% dialyzed FBS, 1.71 µM	110	111	90.8
HPLM + 10% dialyzed FBS, 5.12 µM	111	111	89.9
HPLM + 10% dialyzed FBS, 15.4 µM	97.4	103	89.3
HPLM + 10% dialyzed FBS, 46.1 µM	109	105	86.7
RPMI 5 mM glucose + 10% FBS, 0.000781 µM	99.2	102	114
RPMI 5 mM glucose + 10% FBS, 0.00234 µM	95.4	96.5	117
RPMI 5 mM glucose + 10% FBS, 0.00702 µM	113	97.1	113
RPMI 5 mM glucose + 10% FBS, 0.0211 µM	95.2	97.3	103
RPMI 5 mM glucose + 10% FBS, 0.0632 µM	102	116	126
RPMI 5 mM glucose + 10% FBS, 0.19 µM	108	113	93.7
RPMI 5 mM glucose + 10% FBS, 0.569 µM	115	104	122
RPMI 5 mM glucose + 10% FBS, 1.71 µM	56.6	97.2	121
RPMI 5 mM glucose + 10% FBS, 5.12 µM	100	112	132
RPMI 5 mM glucose + 10% FBS, 15.4 µM	110	107	109
RPMI 5 mM glucose + 10% FBS, 46.1 µM	102	111	101
RPMI 5 mM glucose + 10% dialyzed FBS, 0.000781 µM	102	97.4	81.3
RPMI 5 mM glucose + 10% dialyzed FBS, 0.00234 µM	102	105	86.1
RPMI 5 mM glucose + 10% dialyzed FBS, 0.00702 µM	93.5	105	87.5
RPMI 5 mM glucose + 10% dialyzed FBS, 0.0211 µM	105	102	88.3
RPMI 5 mM glucose + 10% dialyzed FBS, 0.0632 µM	111	113	89.3
RPMI 5 mM glucose + 10% dialyzed FBS, 0.19 µM	97.7	108	92.2
RPMI 5 mM glucose + 10% dialyzed FBS, 0.569 µM	113	105	98.9
RPMI 5 mM glucose + 10% dialyzed FBS, 1.71 µM	93.6	110	104
RPMI 5 mM glucose + 10% dialyzed FBS, 5.12 µM	99.2	105	101
RPMI 5 mM glucose + 10% dialyzed FBS, 15.4 µM	109	103	100
RPMI 5 mM glucose + 10% dialyzed FBS, 46.1 µM	99.7	113	70.8

AUC of viability dose-response curve
Settings	NOMO1 [4]	P12-Ichikawa [5]	SEM cells [6]
HPLM + 10% dialyzed FBS	474	468	445
RPMI 5 mM glucose + 10% FBS	472	453	475
RPMI 5 mM glucose + 10% dialyzed FBS	475	462	433

c1cncc(CN2CCC(n3ncc4c(N5CCOCC5)nc(-c5ccc6[nH]ccc6c5)nc43)CC2)c1
cell viability [%]
Settings	NOMO1 [1]	P12-Ichikawa [2]	SEM cells [3]
HPLM + 10% dialyzed FBS, 0.000781 µM	92.1	96.5	93.8
HPLM + 10% dialyzed FBS, 0.00234 µM	107	99.9	88.8
HPLM + 10% dialyzed FBS, 0.00702 µM	92.5	98.8	98.3
HPLM + 10% dialyzed FBS, 0.0211 µM	94.8	97.5	90
HPLM + 10% dialyzed FBS, 0.0632 µM	84.4	105	101
HPLM + 10% dialyzed FBS, 0.19 µM	89.1	92.2	81
HPLM + 10% dialyzed FBS, 0.569 µM	78.6	91.8	66.6
HPLM + 10% dialyzed FBS, 1.71 µM	72.7	88.5	69.2
HPLM + 10% dialyzed FBS, 5.12 µM	60.1	83.9	73.4
HPLM + 10% dialyzed FBS, 15.4 µM	44	64.8	58.9
HPLM + 10% dialyzed FBS, 46.1 µM	35	46.1	33.1
RPMI 5 mM glucose + 10% FBS, 0.000781 µM	88.4	77.9	123
RPMI 5 mM glucose + 10% FBS, 0.00234 µM	80.4	89.7	117
RPMI 5 mM glucose + 10% FBS, 0.00702 µM	88.1	95.4	111
RPMI 5 mM glucose + 10% FBS, 0.0211 µM	92.7	87.9	103
RPMI 5 mM glucose + 10% FBS, 0.0632 µM	87.8	91.6	105
RPMI 5 mM glucose + 10% FBS, 0.19 µM	82.2	84.9	95.4
RPMI 5 mM glucose + 10% FBS, 0.569 µM	83.6	76.1	68.2
RPMI 5 mM glucose + 10% FBS, 1.71 µM	82.8	75.7	93
RPMI 5 mM glucose + 10% FBS, 5.12 µM	80.5	63.5	80.3
RPMI 5 mM glucose + 10% FBS, 15.4 µM	49.3	32.6	37.1
RPMI 5 mM glucose + 10% FBS, 46.1 µM	15.7	9.35	11.6
RPMI 5 mM glucose + 10% dialyzed FBS, 0.000781 µM	87.3	86.5	87.1
RPMI 5 mM glucose + 10% dialyzed FBS, 0.00234 µM	83.9	92.9	88.4
RPMI 5 mM glucose + 10% dialyzed FBS, 0.00702 µM	96.4	89.5	94.7
RPMI 5 mM glucose + 10% dialyzed FBS, 0.0211 µM	97.7	91.7	87.2
RPMI 5 mM glucose + 10% dialyzed FBS, 0.0632 µM	86.2	91.5	87.3
RPMI 5 mM glucose + 10% dialyzed FBS, 0.19 µM	85.2	81.7	96.4
RPMI 5 mM glucose + 10% dialyzed FBS, 0.569 µM	69.2	78.6	61.9
RPMI 5 mM glucose + 10% dialyzed FBS, 1.71 µM	70.4	74.6	76.2
RPMI 5 mM glucose + 10% dialyzed FBS, 5.12 µM	71.2	69.9	66.5
RPMI 5 mM glucose + 10% dialyzed FBS, 15.4 µM	46.6	31.7	32.6
RPMI 5 mM glucose + 10% dialyzed FBS, 46.1 µM	20	5.49	8.23

AUC of viability dose-response curve
Settings	NOMO1 [4]	P12-Ichikawa [5]	SEM cells [6]
HPLM + 10% dialyzed FBS	374	426	376
RPMI 5 mM glucose + 10% FBS	372	351	370
RPMI 5 mM glucose + 10% dialyzed FBS	362	357	352
